We go through nine compounds from patent US5504101A, “5-HT-1D receptor ligands” (priority 1994, dated 1996).

The target of this assay is T1, 5-HT1Dβ receptor (Homo sapiens, UniProt P28222).
T1 construct: expressed in transfected cells
T1 sequence (P28222 whole entry): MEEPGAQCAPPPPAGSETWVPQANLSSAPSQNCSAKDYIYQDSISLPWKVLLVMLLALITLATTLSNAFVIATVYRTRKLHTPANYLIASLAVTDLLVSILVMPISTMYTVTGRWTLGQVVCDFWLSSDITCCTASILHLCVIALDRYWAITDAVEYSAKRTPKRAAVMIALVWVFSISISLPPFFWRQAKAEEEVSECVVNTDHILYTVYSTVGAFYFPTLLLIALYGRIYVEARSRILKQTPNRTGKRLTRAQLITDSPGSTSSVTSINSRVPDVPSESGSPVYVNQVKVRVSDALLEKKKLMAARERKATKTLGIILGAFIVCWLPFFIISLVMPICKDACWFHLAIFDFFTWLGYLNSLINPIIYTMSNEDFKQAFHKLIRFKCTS
Kind of assay: biochemical. In kind it is binding. The conditions noted are these: ^3 H-5-HT radioligand; membranes from recombinant cells; 15 minute incubation at 37° C.; test compound 10^-11 M to 10^-5 M.
Experimental: The assay protocol generally entailed the incubation of membranes prepared from cells expressing the 1Dβ sub-type of 5-HT1D receptors, with ^3 H-5-HT. Increasing concentrations of the test compound were incubated with the radioligand and the membrane homogenates prepared from the recombinant cells. After a 15 minute incubation at 37° C., the incubation was terminated by vacuum filtration. The filters were washed with buffer and counted for radioactivity using liquid scintillation spectrometry. The affinity of the test compound for 5-HT1DIβ receptor was determined by computer-assisted analysis of the data and by determining the amount of the compound necessary to inhibit 50% of the binding of the radioligand to the receptor. Concentrations ranging from 10^-11 M to 10^-5 M of the test compounds were evaluated.
For orientation: Ki means the dissociation constant of the complex between target and ligand, obtained from inhibition or displacement. Take `COc1ccc(CCc2ccc3[nH]cc(CCN)c3c2)cc1` [4-MeO--Ph(CH2)2 --, 3-(2-aminoethyl)-5-(2-(4-methoxyphenyl)ethyl)indole]: the inhibition constant (Ki) worked out at 3.2 nM. Turning to `NCCc1c[nH]c2ccc(CCc3ccccc3)cc12` [Ph(CH2)2 --, 3-(2-aminoethyl)-5-(2-phenylethyl)-indole], the inhibition constant Ki amounted to 2.9 nM.

In the case of `NCCc1c[nH]c2ccc(OCCc3ccccc3)cc12` [Ph(CH2)2 O--, 3-(2-aminoethyl)-5-(2-phenylethyloxy)indole], the Ki is 1 nM.

In the case of `NCCc1c[nH]c2ccc(OCCCCc3ccccc3)cc12` [Ph(CH2)4 O--, 3-(2-aminoethyl)-5-(4-phenylbutyloxy)indole], the inhibition constant Ki is 0.19 nM.

Turning to `NCCc1c[nH]c2ccc(OCCCCCc3ccccc3)cc12` [Ph(CH2)5 O--, 3-(2-aminoethyl)-5-(5-phenylpentyloxy)indole], the Ki was 0.64 nM. For the compound `NCCc1c[nH]c2ccc(OCCCCCCc3ccccc3)cc12` [Ph(CH2)6 O--, 3-(2-aminoethyl)-5-(6-phenylhexyloxy)indole], the Ki was found to be 1.9 nM. Regarding `NCCc1c[nH]c2ccc(OCCCCCCCCc3ccccc3)cc12` [Ph(CH2)8 O--, reference compound], the inhibition constant Ki worked out at 13.3 nM. On to `NCCc1c[nH]c2ccc(Cc3ccccc3)cc12` [PhCH2 --, 3-(2-aminoethyl)-5-benzylindole], for which the Ki amounted to 3.7 nM.

For the compound `NCCc1c[nH]c2ccc(OCc3ccccc3)cc12` [PhCH2 O--, 3-(2-aminoethyl)-5-benzyloxyindole, reference compound], the Ki worked out at 10.5 nM.
